Measurements published in patent US7772252B2, “Heterocyclic substituted carbonyl derivatives and their use as dopamine D3 receptor ligands” (Aventis Pharmaceuticals Inc., priority 2001, dated 2010).
Read-outs that look alike come from different tables or passages of the source.

Biological target: T1, cloned human dopamine D3 receptors (Homo sapiens, UniProt P35462)
T1 construct: expressed in transfected cells; membrane homogenate
Experiment: [N-Methyl-3H]Spiroperidol binding to cloned human dopamine D3 receptors
Method in brief: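 Radioligand displacement with [N-methyl-3H]spiroperidol was run on membranes from a high-expressing CHO clone carrying human D3. Membranes were prepared in 10% DMSO and stored at −80° C.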

T1 sequence (P35462 whole entry): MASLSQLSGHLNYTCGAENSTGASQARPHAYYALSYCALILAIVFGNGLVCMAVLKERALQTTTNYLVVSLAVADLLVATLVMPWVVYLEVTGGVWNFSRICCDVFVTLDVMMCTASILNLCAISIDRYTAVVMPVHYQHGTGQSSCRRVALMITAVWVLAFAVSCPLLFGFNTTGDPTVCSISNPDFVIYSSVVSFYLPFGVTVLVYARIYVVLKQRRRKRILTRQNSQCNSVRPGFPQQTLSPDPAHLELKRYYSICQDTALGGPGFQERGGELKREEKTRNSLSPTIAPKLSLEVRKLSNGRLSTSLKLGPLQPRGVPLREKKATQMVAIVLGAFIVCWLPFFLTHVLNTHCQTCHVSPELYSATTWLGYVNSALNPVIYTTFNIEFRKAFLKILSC

| Ki (read-out: D3 Ki) [µM] | Ki (read-out: d3Ki) [µM] | Structure (SMILES) |
| --- | --- | --- |
| 0.000239 | – | O=C([C@@H]1C[C@H]1CN1CCC(c2noc3c(C(F)(F)F)cccc23)CC1)N1CCC[C@@H](Cn2ccnc2)C1 [A002437360, (3S-Imidazol-1-ylmethyl-piperidin-1-yl)-{2R-[4-(7-trifluoromethyl-benzo[d]isoxazol-3-yl)-piperidin-1-ylmethyl]-1R-cyclopropyl}-methanone] |
| 0.0368 | – | O=C([C@@H]1C[C@H]1CN1CCN(c2csc3cc(C(F)(F)F)ccc23)CC1)N1CCN(CCO)CC1 [compound 832735] |
| 0.223 | – | CCN(CC)C(=O)C1CCN(C(=O)C2CC2CN2CCC(c3noc4ccsc34)CC2)CC1 (racemic) [compound 831738] |
| – | 0.0674 | C[C@H]1CC[C@H](NC(=O)CCCN2CCN(c3csc4cc(C(F)(F)F)ccc34)CC2)CC1 [compound 826804] |
| – | 0.02 | CC1(C)CCCN(C(=O)CCCN2CCN(c3csc4cc(C(F)(F)F)ccc34)CC2)C1 [compound 826817] |
| 0.0217 | – | O=C(C1CC1CN1CCC(c2noc3ccsc23)CC1)N1CCN(CCc2ccccc2)CC1 (racemic) [compound 832057] |
| 0.103 | – | COc1c(F)ccc2c(C3CCN(C[C@@H]4C[C@H]4C(=O)NCCCc4ccccc4)CC3)noc12 [compound 831310] |
| 0.00705 | – | O=C(NCCc1cccc(F)c1)[C@@H]1C[C@H]1CN1CCC(c2noc3ccsc23)CC1 [compound 832726] |
| 0.00591 | – | Cn1nc(N2CCN(C[C@@H]3C[C@H]3C(=O)N[C@H]3CC[C@H](O)CC3)CC2)c2sccc21 [8319560A] |
| 0.0557 | – | NS(=O)(=O)c1ccc(CCNC(=O)C2CC2CN2CCC(c3noc4ccsc34)CC2)cc1 (racemic) [compound 831701] |
| 0.000861 | – | O=C(C1CC1CN1CCC(c2noc3ccsc23)CC1)N1CCN(Cc2ccc(Cl)c(Cl)c2)CC1 (racemic) [compound 831390] |
| 0.0353 | – | O=C(NCCN1CCCCC1)[C@@H]1C[C@H]1CN1CCN(c2csc3cc(C(F)(F)F)ccc23)CC1 [compound 831885] |
| 0.0314 | – | O=C(NC1CC2CCC1C2)C1CC1CN1CCC(c2noc3ccsc23)CC1 (racemic) [compound 827395] |
| 0.0301 | – | O=C(C1CC1CN1CCC(c2noc3ccsc23)CC1)N1CCN(Cc2ccc3c(c2)OCO3)CC1 (racemic) [compound 832165] |
| 0.066 | – | CC(C)(C)OC(=O)N1CCC(CNC(=O)[C@@H]2C[C@H]2CN2CCC(c3nn(CC(F)(F)F)c4ccsc34)CC2)CC1 [A002439266] |

Continued, molecule first:

| Structure (SMILES) | Ki (read-out: D3 Ki) [µM] | Ki (read-out: d3Ki) [µM] |
| --- | --- | --- |
| Cc1cn(CCCNC(=O)[C@@H]2C[C@H]2CN2CCC(c3noc4ccsc34)CC2)c(C)n1 [compound 831938] | 0.033 | – |
| O=C([C@@H]1C[C@H]1CN1CCC(c2noc3ccc(C(F)(F)F)cc23)CC1)N1CCC(Cn2ccnc2)CC1 [A002200836] | 0.00151 | – |
| O=C([C@@H]1C[C@H]1CN1CCC(c2noc3ccsc23)CC1)N1CCCC(Cn2ccnc2)C1 (mixture of isomers) [compound 832269] | 0.0051 | – |
| COc1cccc2c(C3CCN(C[C@@H]4C[C@H]4C(=O)NCCCn4ccnc4)CC3)nn(C)c12 [compound 834058] | 0.0914 | – |
| CC[C@H]1CC[C@H](NC(=O)CCCN2CCN(c3csc4cc(C(F)(F)F)ccc34)CC2)CC1 [compound 826806] | – | 0.04 |
| O=C(NCCCN1CCCCC1)[C@@H]1C[C@H]1CN1CCC(c2csc3c(C(F)(F)F)cccc23)CC1 [compound 833686] | 0.00722 | – |
| CC1CCN(CCCNC(=O)[C@@H]2C[C@H]2CN2CCN(c3nn(-c4ccc(OC(F)(F)F)cc4)c4ccsc34)CC2)CC1 [compound 834207] | 0.0714 | – |
| COc1cccc2c(C3CCN(C[C@@H]4C[C@H]4C(=O)NCCCN4CCCCC4)CC3)nn(C)c12 [compound 834056] | 0.0932 | – |
| Cc1cccc(CN2CCN(C(=O)C3CC3CN3CCC(c4noc5ccsc45)CC3)CC2)c1 (racemic) [compound 832158] | 0.00037 | – |
| O=C(C1CC1CN1CCC(c2noc3ccsc23)CC1)N1CCN(S(=O)(=O)Cc2ccccc2)CC1 (racemic) [compound 831837] | 0.491 | – |
| C[C@H]1CC[C@H](NC(=O)[C@@H]2C[C@H]2CN2CCC(c3n[nH]c4ccc(C(F)(F)F)cc34)CC2)CC1 [compound 833934] | 0.000633 | – |
| Cn1nc(C2CCN(C[C@@H]3C[C@H]3C(=O)N3CCC[C@@H](Cn4ccnc4)C3)CC2)c2cccc(C(F)(F)F)c21 [A002439260] | 0.000303 | – |
| COc1cccc2c(C3CCN(C[C@@H]4C[C@H]4C(=O)N4CCCC(Cn5ccnc5)C4)CC3)noc12 (mixture of isomers) [compound 833910] | 0.00109 | – |
| O=C(C1CC1CN1CCC(c2noc3ccsc23)CC1)N1CCN(Cc2ccncc2)CC1 (racemic) [compound 831999] | 0.473 | – |
| C=CCN1CCN(C(=O)C2CC2CN2CCC(c3noc4ccsc34)CC2)CC1 (racemic) [compound 832189] | 0.0585 | – |
| O=C(NC1CCN(Cc2ccccc2Cl)CC1)C1CC1CN1CCC(c2noc3ccsc23)CC1 (racemic) [compound 831996] | 0.00797 | – |
| O=C([C@@H]1C[C@H]1CN1CCC(c2noc3ccsc23)CC1)N1CCC(O)CC1 [compound 830250] | 0.0486 | – |

| Structure (SMILES) | Ki (read-out: D3 Ki) [µM] | Ki (read-out: d3Ki) [µM] |
| --- | --- | --- |
| O=C(C1CC1CN1CCC(c2noc3ccsc23)CC1)N1CCN(S(=O)(=O)c2ccccc2)CC1 (racemic) [compound 831835] | 0.234 | – |
| O=C(Nc1ccccn1)C1CC1CN1CCC(c2noc3ccsc23)CC1 (racemic) [compound 827397] | 0.111 | – |
| O=C([C@@H]1C[C@H]1CN1CCN(c2csc3cc(C(F)(F)F)ccc23)CC1)N1CCC(CCN2CCCC2)CC1 [compound 833514] | 0.00036 | – |
| CC(C)N1CCN(C(=O)[C@@H]2C[C@H]2CN2CCC(c3noc4ccsc34)CC2)CC1 [compound 833127] | 0.0796 | – |
| O=C([C@@H]1C[C@H]1CN1CCN(c2csc3cc(C(F)(F)F)ccc23)CC1)N1CCC[C@@H](CO)C1 [A002438637] | 0.0212 | – |
| COc1ccc2c(c1)c(N1CCN(C[C@@H]3C[C@H]3C(=O)NCCCN3CCCCC3)CC1)nn2C [compound 833120] | 0.138 | – |
| COc1cccc2c(C3CCN(C[C@@H]4C[C@H]4C(=O)NCCCN4CCCCC4)CC3)noc12 [compound 832108] | 0.178 | – |
| CN1C2CCC1CC(NC(=O)[C@@H]1C[C@H]1CN1CCN(c3csc4cc(C(F)(F)F)ccc34)CC1)C2 (stereo partly drawn) [A002439099] | 0.00491 | – |
| CC1CCCCN1C(=O)[C@@H]1C[C@H]1CN1CCC(c2noc3ccsc23)CC1 (mixture of isomers) [compound 829462] | 0.00965 | – |
| O=C(NC1CCN(CCc2cccc(Cl)c2)CC1)[C@@H]1C[C@H]1CN1CCC(c2noc3ccsc23)CC1 [compound 833748] | 0.00138 | – |
| COc1cccc2c(C3CCN(C[C@@H]4C[C@H]4C(=O)NCCCc4cccnc4)CC3)noc12 [compound 832104] | 0.62 | – |
| C[C@H]1CC[C@H](NC(=O)[C@@H]2C[C@H]2CN2CCC(c3n[nH]c4cc(Br)ccc34)CC2)CC1 [compound 833694] | 0.0469 | – |
| O=C(NCCCn1ccnc1)[C@@H]1C[C@H]1CN1CCC(c2noc3ccsc23)CC1 [compound 829596] | 0.00441 | – |
| O=C([C@@H](O)CCN1CCC(c2noc3ccsc23)CC1)N1CCCCC1 [compound 830557] | 0.0974 | – |
| CC(C)(C)OC(=O)N1CCCCC1CCNC(=O)[C@@H]1C[C@H]1CN1CCN(c2csc3cc(C(F)(F)F)ccc23)CC1 (mixture of isomers) [compound 832500] | 0.161 | – |
| COc1ccc2c(c1)c(N1CCN(C[C@@H]3C[C@H]3C(=O)NCCCn3ccnc3)CC1)nn2-c1ccc(C(F)(F)F)cc1 [compound 831313] | 0.134 | – |
